Experimental data published in patent US10138222B2, “Substituted benzamides as RIPK2 inhibitors” (Boehringer Ingelheim International GmbH, priority 2016, dated 2018).

Target: RIPK2 (Homo sapiens (Human), UniProt O43353)
Test: RIPK2 inhibition, ADP-Glo Kinase Assay
Assay type: biochemical
Settings: 8His-RIPK2 FL enzyme 8 nM, ATP 5 μM, 15 minutes pre-incubation, 60 minutes at 37° C., luminescence
Description: RIPK2 inhibition for compounds in Table 1 are shown in Table 3 and measured using the following method:
Materials: White, 384-well optiplates (cat.no. 6007290) were purchased from PerkinElmer. The V9103X ADP-Glo Kinase Assay Custom (including ultra-pure ATP) was purchased from Promega. 8His-RIPK2 FL was prepared in-house. All other materials were of highest grade commercially available.
Method: In a 384-well plate, test compound diluted in assay buffer (1% DMSO final) is mixed with 8His-RIPK2 FL enzyme (final concentration of 8 nM). After 15 minutes of pre-incubation at RT, ATP dissolved in assay buffer is added (final concentration 5 μM). The mixture is incubated for 60 minutes at 37° C. in a humidified incubator. Then, ADP Glo Reagent is added, followed by a 40 minute incubation at rt. Finally, Kinase Detection Reagent is added and the entire mixture is incubated for 40 min at RT. The luminescence signal is measured with an Envision reader to determine the amount of ADP produced. Assay buffer: 25 mM HEPES (4-(2-hydroxyethyl)-1-piperazinethanesulfonic acid), 0.1% BSA (bovine serum albumin), 10 mM MgCl2, 5 mM MnCl2, 50 mM KCl, 0.01% CHAPS (3-[(3-cholamidopropyl)dimethylammonio]-1-propanesulfonate), 10 μM Na3VO4, 1 mM DTT (dithiothreitol), pH 7.5 All plates contain wells with vehicle controls instead of compound (1% DMSO) as reference for the high signal (100% CTL (100% of control), high signal), and wells without enzyme as reference for low signal (0% CTL, low signal). The luminescent signal generated is proportional to the ADP produced and is correlated with enzyme activity. The analysis of the data is performed by the calculation of the percentage of ADP production in the presence of the test compound and RIPK2 as compared to the ADP production in the presence of RIPK2 plus 50 μM Gefitinib. (RLU (relative luminescence units) (sample)−RLU(low control))*100/(RLU(high value)−RLU(low control)) [RLU=relative luminescence units].

Chain of RIPK2 (O43353 whole entry): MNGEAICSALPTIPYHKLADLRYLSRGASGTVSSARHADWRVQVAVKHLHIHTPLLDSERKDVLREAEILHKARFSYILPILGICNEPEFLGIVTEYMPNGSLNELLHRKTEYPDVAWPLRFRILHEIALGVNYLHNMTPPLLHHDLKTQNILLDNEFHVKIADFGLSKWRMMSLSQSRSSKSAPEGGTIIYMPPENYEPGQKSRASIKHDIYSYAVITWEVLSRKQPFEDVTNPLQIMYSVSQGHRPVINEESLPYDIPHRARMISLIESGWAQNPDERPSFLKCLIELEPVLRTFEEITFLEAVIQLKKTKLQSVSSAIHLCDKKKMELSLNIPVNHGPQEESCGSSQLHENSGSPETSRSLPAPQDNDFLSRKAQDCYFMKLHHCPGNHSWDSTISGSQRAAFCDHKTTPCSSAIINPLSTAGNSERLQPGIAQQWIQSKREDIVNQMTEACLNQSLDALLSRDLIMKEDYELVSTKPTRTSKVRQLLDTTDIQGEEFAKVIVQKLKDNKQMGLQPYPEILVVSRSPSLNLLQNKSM

Cc1cc(F)c(C(=O)NC2CC2)cc1-c1cnn(-c2cncc(N[C@H]3CCN(C)CC3(F)F)c2)c1 (single isomer, unassigned) [Example 175]
IC50: 1.7 nM

Cc1cc(F)c(C(=O)NC2CC2)cc1-c1cnn(-c2cncc(N[C@@H]3CCN(C)CC3(F)F)c2)c1 (single isomer, unassigned) [Example 176]
IC50: 1.5 nM

COc1cncc(-n2cc(-c3cc(C(=O)NC4CC4)c(F)cc3C)cn2)c1 [Example 25, N-cyclopropyl-2-fluoro-5-[1-(5-methoxypyridin-3-yl)-1H-pyrazol-4-yl]-4-methylbenzamide]
IC50: 3.7 nM

COc1cncc(-n2cc(-c3cc(C(=O)NC4CC4)c(F)cc3Cl)cn2)c1 [Example 26, 4-chloro-N-cyclopropyl-2-fluoro-5-[1-(5-methoxypyridin-3-yl)-1H-pyrazol-4-yl]benzamide]
IC50: 8.9 nM

COc1cncc(-n2cc(-c3cc(C(=O)NC4CC4)ccc3Cl)cn2)c1 [Example 27, 4-chloro-N-cyclopropyl-3-[1-(5-methoxypyridin-3-yl)-1H-pyrazol-4-yl]benzamide]
IC50: 22 nM

COc1cncc(-n2cc(-c3cc(C(=O)NC4CC4)ccc3C)cn2)c1 [Example 28, N-cyclopropyl-3-[1-(5-methoxy-pyridin-3-yl)-1H-pyrazol-4-yl]-4-methylbenzamide]
IC50: 15 nM

O=C(NC1CC1)c1ccc(Cl)c(-c2cnn(-c3cccnc3)c2)c1 [Example 31, 4-chloro-N-cyclopropyl-3-[1-(pyridin-3-yl)-1H-pyrazol-4-yl]benzamide]
IC50: 94 nM

O=C(NC1CC1)c1cc(-c2cnn(-c3cccnc3)c2)c(Cl)cc1F [Example 32, 4-chloro-N-cyclopropyl-2-fluoro-5-[1-(pyridin-3-yl)-1H-pyrazol-4-yl] benzamide]
IC50: 14 nM

COc1cncc(-n2cnc(-c3cc(C(=O)NC4CC4)c(F)cc3Cl)c2)c1 [Example 33, 4-chloro-N-cyclopropyl-2-fluoro-5-[1-(5-methoxypyridin-3-yl)-1H-imidazol-4-yl]benzamide]
IC50: 7.4 nM

Cc1ccc(C(=O)NC2CC2)cc1-c1cnn(-c2cccnc2)c1 [Example 34, N-cyclopropyl-4-methyl-3-[1-(pyridin-3-yl)-1H-pyrazol-4-yl] benzamide]
IC50: 38 nM

Cc1ccc(C(=O)NC2CC2)cc1-c1cn(-c2cccnc2)cn1 [Example 35, N-cyclopropyl-4-methyl-3-[1-(pyridin-3-yl)-1H-imidazol-4-yl] benzamide]
IC50: 39 nM

CCOc1cncc(-n2cc(-c3cc(C(=O)NC4CC4)ccc3C)cn2)c1 [Example 36, N-cyclopropyl-3-[1-(5-ethoxypyridin-3-yl)-1H-pyrazol-4-yl]-4-methyl-benzamide]
IC50: 8.8 nM

CNCc1cncc(-n2cc(-c3cc(C(=O)NC4CC4)ccc3C)cn2)c1 [Example 39, N-cyclopropyl-4-methyl-3-(1-{5-[(methylamino)methyl]pyridin-3-yl}-1H-pyrazol-4-yl)benzamide]
IC50: 180 nM

Cc1ccc(C(=O)NC2CC2)cc1-c1cnn(-c2cncc(CO)c2)c1 [Example 43, N-cyclopropyl-3-{1-[5-(hydroxymethyl)pyridin-3-yl]-1H-pyrazol-4-yl}-4-methylbenzamide]
IC50: 24 nM

Cc1ccc(C(=O)NC2CC2)cc1-c1cnn(-c2cncc(N(C)C)c2)c1 [Example 44, N-cyclopropyl-3-{1-[5-(dimethylamino)pyridin-3-yl]-1H-pyrazol-4-yl}-4-methylbenzamide]
IC50: 6.4 nM

Cc1ccc(C(=O)NC2CC2)cc1-c1cnn(-c2cncc(C3CC3)c2)c1 [Example 45, N-cyclopropyl-3-[1-(5-cyclopropyl-pyridin-3-yl)-1H-pyrazol-4-yl]-4-methylbenzamide]
IC50: 3.6 nM

Cc1ccc(C(=O)NC2CC2)cc1-c1cnn(-c2cncc(S(C)(=O)=O)c2)c1 [Example 46, N-cyclopropyl-3-[1-(5-methanesulfonylpyridin-3-yl)-1H-pyrazol-4-yl]-4-methylbenzamide]
IC50: 190 nM

Cc1ccc(C(=O)NC2CC2)cc1-c1cnn(-c2cncc(C(F)(F)F)c2)c1 [Example 47, N-cyclopropyl-4-methyl-3-{1-[5-(trifluoromethyl)pyridin-3-yl]-1H-pyrazol-4-yl}benzamide]
IC50: 57 nM

Cc1ccc(C(=O)NC2CC2)cc1-c1cnn(-c2cncc(C(=O)O)c2)c1 [Example 48, 5-{4-[5-(cyclopropylcarbamoyl)-2-methylphenyl]-1H-pyrazol-1-yl} pyridine-3-carboxylic acid]
IC50: 33 nM

Cc1ccc(C(=O)NC2CC2)cc1-c1cnn(-c2cncc(C(=O)N(C)C)c2)c1 [Example 49, 5-{4-[5-(cyclopropylcarbamoyl)-2-methylphenyl]-1H-pyrazol-1-yl}-N,N-dimethylpyridine-3-carboxamide]
IC50: 390 nM

CC(=O)NC(C)(C)c1cncc(-n2cc(-c3cc(C(=O)NC4CC4)ccc3C)cn2)c1 [Example 50, N-cyclopropyl-3-{1-[5-(2-acetamidopropan-2-yl)pyridin-3-yl]-1H-pyrazol-4-yl}-4-methylbenzamide]
IC50: 570 nM

Cc1ccc(C(=O)NC2CC2)cc1-c1cnn(-c2cncc(CC(=O)O)c2)c1 [Example 51, 2-(5-{4-[5-(cyclopropylcarbamoyl)-2-methylphenyl]-1H-pyrazol-1-yl}pyridin-3-yl)acetic acid]
IC50: 240 nM

Cc1ccc(C(=O)NC2CC2)cc1-c1cnn(-c2cncc(CC#N)c2)c1 [Example 52, 3-{1-[5-(cyanomethyl)pyridin-3-yl]-1H-pyrazol-4-yl}-N-cyclopropyl-4-methylbenzamide]
IC50: 56 nM

COc1cncc(-n2cnc(-c3cc(C(=O)NC4CC4)ccc3C)c2)c1 [Example 53, N-cyclopropyl-3-[1-(5-methoxypyridin-3-yl)-1H-imidazol-4-yl]-4-methyl-benzamide]
IC50: 7.6 nM

COc1cncc(-n2cnc(-c3cc(C(=O)NC4CC4)ccc3Cl)c2)c1 [Example 54, 4-chloro-N-cyclopropyl-3-[1-(5-methoxypyridin-3-yl)-1H-imidazol-4-yl]benzamide]
IC50: 41 nM

Cc1ccc(C(=O)NC2CC2)cc1-c1cnn(-c2cncc(NCCOC(C)(C)C)c2)c1 [Example 55, 3-[1-(5-{[2-(tert-butoxy)ethyl]amino}pyridin-3-yl)-1H-pyrazol-4-yl]-N-cyclopropyl-4-methylbenzamide]
IC50: 9.7 nM

CCO[C@H]1COC[C@@H]1Nc1cncc(-n2cc(-c3cc(C(=O)NC4CC4)ccc3C)cn2)c1 [Example 56, N-cyclopropyl-3-[1-(5-{[(3S,4R)-4-ethoxyoxolan-3-yl]amino}pyridin-3-yl)-1H-pyrazol-4-yl]-4-methyl-benzamide]
IC50: 10 nM

Cc1ccc(C(=O)NC2CC2)cc1-c1cnn(-c2cncc(NCC3COCCO3)c2)c1 (stereo not shown) [Example 57, N-cyclopropyl-3-(1-{5-[(1,4-dioxan-2-ylmethyl)amino]pyridin-3-yl}-1H-pyrazol-4-yl)-4-methylbenzamide]
IC50: 4.5 nM

Cc1ccc(C(=O)NC2CC2)cc1-c1cnn(-c2cncc(NCCN3CCOC3=O)c2)c1 [Example 58, N-cyclopropyl-4-methyl-3-[1-(5-{[2-(2-oxo-1,3-oxazolidin-3-yl)ethyl]amino}pyridin-3-yl)-1H-pyrazol-4-yl]benzamide]
IC50: 3.8 nM

Cc1ccc(C(=O)NC2CC2)cc1-c1cnn(-c2cncc(NCC3CCCO3)c2)c1 (stereo not shown) [Example 59, N-cyclopropyl-4-methyl-3-(1-{5-[(oxolan-2-ylmethyl)amino]pyridin-3-yl}-1H-pyrazol-4-yl)benzamide]
IC50: 9.1 nM

COCCNc1cncc(-n2cc(-c3cc(C(=O)NC4CC4)ccc3C)cn2)c1 [Example 60, N-cyclopropyl-3-(1-{5-[(2-methoxyethyl)amino]pyridin-3-yl}-1H-pyrazol-4-yl)-4-methylbenzamide]
IC50: 8.4 nM

CC(=O)N1CCC(Nc2cncc(-n3cc(-c4cc(C(=O)NC5CC5)ccc4C)cn3)c2)CC1 [Example 63, 3-(1-{5-[(1-acetylpiperidin-4-yl)amino]pyridin-3-yl}-1H-pyrazol-4-yl)-N-cyclopropyl-4-methyl-benzamide]
IC50: 1.9 nM

COC1CCC(Nc2cncc(-n3cc(-c4cc(C(=O)NC5CC5)ccc4C)cn3)c2)C1 (stereo not shown) [Example 65, N-cyclopropyl-3-(1-{5-[(3-methoxycyclopentyl)amino]pyridin-3-yl}-1H-pyrazol-4-yl)-4-methyl-benzamide]
IC50: 2.3 nM

Cc1ccc(C(=O)NC2CC2)cc1-c1cnn(-c2cncc(N[C@@H]3C[C@H]4CC[C@@H]3O4)c2)c1 [Example 66, N-cyclopropyl-4-methyl-3-[1-(5-{[(1S,2R,4R)-7-oxabicyclo[2.2.1]heptan-2-yl]amino}pyridin-3-yl)-1H-pyrazol-4-yl]benzamide]
IC50: 3.9 nM
